Read-outs that look alike come from different tables or passages of the source.
Assays:
[1] = system: ICR male or female mice; experiment: Acute toxicity evaluation in mice, intravenous; format: in vivo, mouse; settings: intravenous doses of 5 and 10 mg/kg, deaths recorded at 3, 24, 48 and 72 hours
Protocol: Compound 20 was formulated in 5% dextrose in water (w/v)/PEG 400 (4:1 v/v) to a maximum concentration of 8 mg/mL. The solution was passed through a 0.8/0.2 micron filter before administration.
ICR male or female mice weighing 20–22 g were maintained in a hygienic environment under controlled temperature (22–24° C.) and humidity (60–80%) with 12-hour light/dark cycles for at least one week. Free access to standard lab chow for mice and tap water was granted.
Three mice/dose (5 and 10 mg/kg) were intravenously administered test compound. Animal deaths were recorded at 3, 24, 48 and 72 hours after treatment.

[2] = target: T1, human serotonin 5-HT2A receptor (Homo sapiens, UniProt P28223); experiment: Radioligand binding assay, human 5-HT2A receptors ([3H]Ketanserin); settings: human 5-HT2a, Example 16 table
T1 construct: expressed in transfected cells; host or cells: CHO-K1
T1 sequence (P28223 whole entry): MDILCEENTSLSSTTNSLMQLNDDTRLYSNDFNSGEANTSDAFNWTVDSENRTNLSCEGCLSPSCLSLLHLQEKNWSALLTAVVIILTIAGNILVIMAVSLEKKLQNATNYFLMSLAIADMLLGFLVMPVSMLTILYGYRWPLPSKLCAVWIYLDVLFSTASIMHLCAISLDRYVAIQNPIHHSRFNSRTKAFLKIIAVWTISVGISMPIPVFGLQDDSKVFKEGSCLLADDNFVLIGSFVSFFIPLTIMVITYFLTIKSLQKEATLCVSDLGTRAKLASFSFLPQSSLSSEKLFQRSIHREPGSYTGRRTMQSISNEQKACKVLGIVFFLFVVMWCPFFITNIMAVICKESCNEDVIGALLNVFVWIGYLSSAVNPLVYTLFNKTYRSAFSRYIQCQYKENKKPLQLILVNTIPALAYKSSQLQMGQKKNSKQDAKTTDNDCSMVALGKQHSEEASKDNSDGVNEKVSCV
Protocol: (§1) The human 5-HT2a and 5-HT2b screens were conducted according to Bonhaus, D. W. et al. Br. J. Pharmacol. 1995, 115, 622. The human 5-HT2c screen was conducted according to Wolf, W. A. et al. J. Neurochem. 1997, 69, 1449. The human 5-HT6 screen was conducted according to Monsma, F. J. et al. Mol. Pharmacol. 1993, 43, 320.
CHO-K1 cells stably transfected with a plasmid encoding the human serotonin 5-HT2A receptor were used to prepare membranes in modified Tris-HCl pH 7.7 buffer using standard techniques. […] Non-specific binding was estimated in the presence of 1 μM mianserin. […] See Bonhaus, D. W. et al. “The pharmacology and distribution of human 5-hydroxytryptamine2B (5-HT2B) receptor gene products: comparison with 5-HT2A and 5-HT2C receptors” Brit. J. Pharmacol. 115: 622–628, 1995; and Saucier, C and Albert, P. R. “Identification of an endogenous 5-hydroxytryptamine2A receptor in NIH-3T3 cells: agonist-induced down-regulation involves decreases in receptor RNA and number” J. Neurochem. 68: 1998–2011, 1997.
(§2) The human 5-HT2a and 5-HT2b screens were conducted according to Bonhaus, D. W. et al. Br. J. Pharmacol. 1995, 115, 622. The human […], W. A. et al. J. Neurochem. 1997, 69, 1449. The human 5-HT6 screen was conducted according to Monsama, F. J. et al. Mol. Pharmacol. 1993, 43, 320. The assay to human D3 receptors was conducted according to Sokoloff, P. et al. Nature 1990, 347;146. The human dopamine transporter assay was conducted according to Gu, H. et. al. J. Biol. Chem. 1994, 269 (10);7124; and Giros, B. et al. Trends. Pharmacol. Sci. 1993, 14: 43. The human muscarinic M1–M4 screens were conducted according to Buckley N. J. et al. Mol. Pharmacol. 1989, 35:469.

[3] = target: T2, human serotonin 5-HT2B receptor (Homo sapiens, UniProt P41595); experiment: Radioligand binding assay, human 5-HT2B receptors ([3H]LSD)
T2 construct: expressed in transfected cells; host or cells: CHO-K1
T2 sequence (P41595 whole entry): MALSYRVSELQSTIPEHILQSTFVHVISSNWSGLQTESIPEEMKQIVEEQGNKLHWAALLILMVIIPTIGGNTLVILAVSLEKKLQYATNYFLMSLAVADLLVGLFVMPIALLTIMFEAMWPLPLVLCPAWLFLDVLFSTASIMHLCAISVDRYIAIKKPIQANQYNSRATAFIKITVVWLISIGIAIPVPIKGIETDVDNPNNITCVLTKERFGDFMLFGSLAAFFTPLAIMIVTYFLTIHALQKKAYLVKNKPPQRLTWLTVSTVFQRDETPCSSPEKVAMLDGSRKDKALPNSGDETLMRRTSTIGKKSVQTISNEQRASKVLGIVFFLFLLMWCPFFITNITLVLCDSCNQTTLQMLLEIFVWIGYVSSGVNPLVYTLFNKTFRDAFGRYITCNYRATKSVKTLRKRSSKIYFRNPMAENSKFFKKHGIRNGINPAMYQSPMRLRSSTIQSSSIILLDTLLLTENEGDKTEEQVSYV
Protocol: This assay measures binding of [^3H]LSD to human serotonin 5-HT2B receptors. CHO-K1 cells stably transfected with a plasmid encoding the human serotonin 5-HT2B receptor were used to prepare membranes in modified Tris-HCl pH 7.4 buffer using standard techniques. […] Non-specific binding was estimated in the presence of 10 μM serotonin. Membranes were filtered and washed 3 times and the filters were counted to determine [^3H]LSD specifically bound. See Bonhaus, D. W. et al. “The pharmacology and distribution of human 5-hydroxytryptamine2B (5-HT2B) receptor gene products: comparison with 5-HT2A and 5-HT2C receptors” Brit.
The human 5-HT2b screen was conducted according to Wolf, W. A. et al. J. Neurochem.

[4] = target: T3, human serotonin 5-HT2C receptor (Homo sapiens, UniProt P28335); experiment: Radioligand binding assay, human 5-HT2C receptors ([3H]Mesulergine); settings: human 5-HT2c, Example 16 table
T3 construct: expressed in transfected cells; host or cells: CHO-K1
T3 sequence (P28335 33-458): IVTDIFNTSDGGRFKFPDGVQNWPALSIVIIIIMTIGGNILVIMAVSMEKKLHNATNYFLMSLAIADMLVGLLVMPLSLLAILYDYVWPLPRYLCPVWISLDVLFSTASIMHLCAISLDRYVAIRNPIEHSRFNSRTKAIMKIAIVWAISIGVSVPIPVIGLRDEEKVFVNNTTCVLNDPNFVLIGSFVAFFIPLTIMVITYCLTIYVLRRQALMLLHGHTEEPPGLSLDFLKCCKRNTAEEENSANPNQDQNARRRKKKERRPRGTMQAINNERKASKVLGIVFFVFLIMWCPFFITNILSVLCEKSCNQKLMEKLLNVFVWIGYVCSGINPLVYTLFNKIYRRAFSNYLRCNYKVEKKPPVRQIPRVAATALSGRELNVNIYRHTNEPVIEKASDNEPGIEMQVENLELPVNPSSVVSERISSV
Protocol: as §1
CHO-K1 cells stably transfected with a plasmid encoding the human serotonin 5-HT2C receptor were used to prepare membranes in modified Tris-HCl pH 7.7 buffer using standard techniques. […] Non-specific binding was estimated in the presence of 1 μM mianserin. […] See Wolf, W. A. and Schutz, J. S. “The serotonin 5-HT2C receptor is a prominent serotonin receptor in basal ganglia: evidence from functional studies on serotonin-mediated phosphoinositide hydrolysis” J. Neurochem. 69: 1449–1458, 1997.
as §2

[5] = target: T4, human serotonin 5-HT6 receptor (Homo sapiens, UniProt P50406); experiment: Radioligand binding assay, human 5-HT6 receptors ([3H]LSD)
T4 construct: expressed in transfected cells; host or cells: HeLa/E6-7
T4 sequence (P50406 whole entry): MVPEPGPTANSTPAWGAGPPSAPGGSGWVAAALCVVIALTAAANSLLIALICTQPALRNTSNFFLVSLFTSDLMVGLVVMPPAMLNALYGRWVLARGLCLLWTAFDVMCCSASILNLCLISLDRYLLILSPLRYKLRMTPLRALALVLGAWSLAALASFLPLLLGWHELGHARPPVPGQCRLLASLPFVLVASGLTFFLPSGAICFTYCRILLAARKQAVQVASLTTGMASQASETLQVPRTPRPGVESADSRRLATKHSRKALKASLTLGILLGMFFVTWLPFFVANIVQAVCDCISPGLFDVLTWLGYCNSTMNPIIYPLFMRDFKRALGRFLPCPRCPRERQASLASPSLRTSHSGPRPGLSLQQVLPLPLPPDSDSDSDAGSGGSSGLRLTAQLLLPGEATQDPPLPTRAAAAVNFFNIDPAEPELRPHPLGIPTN
Protocol: as §1
This assay measures binding of [^3H]LSD (lysergic acid diethylamide) to human serotonin 5-HT6 receptors. HeLa/E6–7 cells stably transfected with a plasmid encoding the human serotonin 5-HT6 receptor were used to prepare membranes in modified Tris-HCl pH 7.4 buffer using standard techniques. A 30 μg aliquot of membrane was incubated with 1.5 nM [^3H]LSD for 120 minutes at 37° C. Non-specific binding was estimated in the presence of 5 μM 5-HT. Membranes were filtered and washed 3 times and the filters were counted to determine [^3H]LSD specifically bound. See Monsma, Jr., F. J. et al. “Cloning and expression of a novel serotonin receptor with high affinity for tricyclic psychotropic drugs” Mol. Pharmacol. 43: 320–327, 1993.
as §2

[6] = target: T5, human dopamine D3 receptor (Homo sapiens, UniProt P35462); experiment: Radioligand binding assay, human dopamine D3 receptors ([3H]Spiperone)
T5 construct: expressed in transfected cells; host or cells: CHO
T5 sequence (P35462 whole entry): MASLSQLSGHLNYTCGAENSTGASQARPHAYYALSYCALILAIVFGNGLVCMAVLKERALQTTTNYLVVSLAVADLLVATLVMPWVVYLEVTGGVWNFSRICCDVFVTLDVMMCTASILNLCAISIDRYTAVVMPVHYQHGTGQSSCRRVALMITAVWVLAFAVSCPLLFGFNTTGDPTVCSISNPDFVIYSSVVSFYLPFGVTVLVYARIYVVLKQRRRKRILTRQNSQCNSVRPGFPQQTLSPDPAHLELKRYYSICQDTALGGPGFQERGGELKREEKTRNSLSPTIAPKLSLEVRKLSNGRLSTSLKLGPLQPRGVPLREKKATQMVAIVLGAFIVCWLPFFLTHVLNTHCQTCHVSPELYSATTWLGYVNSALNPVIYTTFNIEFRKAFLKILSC
Protocol: The assay for binding to human D3 receptors was conducted according to Sokoloff, P. et al. Nature 1990, 347, 146.
CHO cells stably transfected with a plasmid encoding the human dopamine D3 receptor were used to prepare membranes in modified Tris-HCl pH 7.4 buffer using standard techniques. […] Non-specific binding was estimated in the presence of 25 μM S-(−)-sulpiride. […] See Sokoloff, P. et al. “Molecular cloning and characterization of a novel dopamine receptor (D3) as a target for neuroleptics” Nature 347: 146–151, 1990.
as §2

[7] = target: T6, human dopamine transporter (Homo sapiens, UniProt Q01959); experiment: Binding to human dopamine transporter ([125I]RTI-55)
T6 construct: expressed in transfected cells; host or cells: CHO-K1
T6 sequence (Q01959 whole entry): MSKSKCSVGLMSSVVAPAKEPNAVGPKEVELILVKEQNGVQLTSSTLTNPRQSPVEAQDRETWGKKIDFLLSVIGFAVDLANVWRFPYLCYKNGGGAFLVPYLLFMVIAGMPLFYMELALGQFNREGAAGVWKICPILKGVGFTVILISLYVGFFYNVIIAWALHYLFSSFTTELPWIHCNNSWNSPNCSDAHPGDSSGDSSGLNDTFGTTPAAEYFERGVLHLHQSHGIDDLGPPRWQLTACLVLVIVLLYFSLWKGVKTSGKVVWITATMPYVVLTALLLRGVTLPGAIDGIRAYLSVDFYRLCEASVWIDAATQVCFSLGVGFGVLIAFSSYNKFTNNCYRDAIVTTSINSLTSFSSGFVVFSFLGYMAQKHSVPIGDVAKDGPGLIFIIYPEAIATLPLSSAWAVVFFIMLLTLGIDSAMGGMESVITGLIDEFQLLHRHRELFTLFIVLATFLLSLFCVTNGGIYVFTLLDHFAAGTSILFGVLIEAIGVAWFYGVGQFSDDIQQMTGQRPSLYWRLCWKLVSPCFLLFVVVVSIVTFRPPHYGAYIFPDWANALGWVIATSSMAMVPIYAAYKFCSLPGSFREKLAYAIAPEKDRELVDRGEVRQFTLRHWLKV
Protocol: CHO-K1 cell membranes stably transfected with a plasmid encoding the human dopamine transporter were prepared in modified Tris-HCl pH 7.4 buffer using standard techniques. […] Non-specific binding was estimated in the presence of 10 μM nomifensine. […] Trends. […]

[8] = human 5-HT2b, Example 16 table, read-out: IC50 (nM) 5-HT2b
[9] = human 5-HT6, Example 16 table, read-out: IC50 (nM) 5-HT6
[10] = Example 20 table, read-out: IC50 (nM) Against Human D3 Receptors
[11] = human, Example 101 table, read-out: IC50 (nM) DAT
[12] = IC50 (nM) 5-HT6, human 5-HT6, Example 16 table
[13] = IC50 (nM) Against Human D3 Receptors, Example 20 table

| SMILES | IC50 ([2]; read-out: IC50 (nM) 5-HT2a) [nM] | IC50 [3, 8] [nM] | IC50 ([4]; read-out: IC50 (nM) 5-HT2c) [nM] | IC50 [5, 9] [nM] | IC50 [6, 10] [nM] | IC50 [7, 11] [nM] | further results |
| --- | --- | --- | --- | --- | --- | --- | --- |
| CCN(CC)CCCNc1nc(C2(c3ccc(Cl)cc3)CCC2)cs1.O=C(O)CC(O)(CC(=O)O)C(=O)O [Compound 20, N′-{4-[1-(4-chlorophenyl)cyclobutyl]thiazol-2-yl}-N,N-diethylpropane-1,3-diamine citrate salt] |  |  |  |  |  |  | Animal deaths [1]: no deaths were observed |
| Clc1ccc(C2(c3csc(NCCN4CCOCC4)n3)CCC2)cc1 [Compound 22, {4-[1-(4-chlorophenyl)-cyclobutyl]thiazol-2-yl}-(2-morpholin-4-yl-ethyl)amine] | > 1000 | > 1000 | > 1000 | > 1000 | > 1000 | > 1000 |  |
| Clc1ccc(C2(c3csc(NCCN4CCCCC4)n3)CCC2)cc1 [Compound 23, {4-[1-(4-chlorophenyl)-cyclobutyl]thiazol-2-yl}-(2-piperidin-1-yl-ethyl)amine] | < 1000 | < 1000 | < 100 | > 1000 | < 1000 | < 500 |  |
| CN1CCCC1CCNc1nc(C2(c3ccc(Cl)cc3)CCC2)cs1 (stereo not shown) [Compound 24, {4-[1-(4-chlorophenyl)-cyclobutyl]thiazol-2-yl}-[2-(1-methylpyrrolidin-2-yl)ethyl]amine] | < 100 | < 100 | < 10 | < 1000 | < 1000 | < 500 |  |
| CCN1CCCC1CNc1nc(C2(c3ccc(Cl)cc3)CCC2)cs1 (stereo not shown) [Compound 25, {4-[1-(4-chlorophenyl)cyclobutyl]thiazol-2-yl}-(1-ethylpyrrolidin-2-ylmethyl)amine] | < 1000 | < 1000 | < 1000 | < 1000 | < 1000 | > 1000 |  |
| CN1CCCC1CCNc1nc(C2(c3ccc(Cl)cc3)CCC2)no1 (stereo not shown) [Compound 26, {3-[1-(4-Chlorophenyl)cyclobutyl]-[1,2,4]oxadiazol-5-yl}-[2-(1-methyl-pyrrolidin-2-yl)-ethyl]-amine] |  |  |  |  |  |  | IC50 ([2]; IC50 (nM) 5-HT2a): > 1000 nM; IC50 [3]: > 1000 nM; IC50 ([4]; IC50 (nM) 5-HT2c): < 1000 nM; IC50 [5, 12]: > 1000 nM; IC50 [6, 13]: > 1000 nM; IC50 [7]: < 1000 nM |
| CN1CCN(c2nc(C3(c4ccc(Cl)cc4)CCC3)cs2)CC1 [Compound 27, 1-{4-[1-(4-chlorophenyl)cyclobutyl]thiazol-2-yl}-4-methylpiperazine] | < 1000 | < 1000 | < 1000 | < 1000 | < 1000 | < 500 |  |
| CN1CCN(c2nc(C3(c4ccc(Cl)cc4)CCC3)no2)CC1 [Compound 28, 1-{3-[1-(4-chlorophenyl)cyclobutyl]-[1,2,4]oxadiazol-5-yl}-4-methylpiperazine] | > 1000 | > 1000 | > 1000 | > 1000 | > 1000 | > 1000 |  |
| CN1CCN(c2nc(C3(c4ccc(Cl)cc4)CCOCC3)cs2)CC1 [Compound 29, 1-{4-[4-(4-chlorophenyl)tetrahydropyran-4-yl]-thiazol-2-yl}-4-methylpiperazine] |  |  |  |  |  |  | IC50 ([2]; IC50 (nM) 5-HT2a): > 1000 nM; IC50 [3]: > 1000 nM; IC50 ([4]; IC50 (nM) 5-HT2c): < 1000 nM; IC50 [5, 12]: < 100 nM; IC50 [6, 13]: < 1000 nM; IC50 [7]: < 1000 nM |
| CN1CCN(c2nc(CCc3ccc(Cl)cc3)cs2)CC1 [Compound 32] | < 100 | < 1000 | < 100 | > 1000 | > 1000 | > 1000 |  |
| CN1CCC(c2nc(C3(c4ccc(Cl)cc4)CCCCC3)cs2)CC1 [Compound 35] | < 1000 | < 1000 | < 1000 | < 1000 | < 100 | < 100 |  |
| COc1ccc(C2(c3csc(N4CCN(C)CC4)n3)CCOCC2)cc1OC [Compound 74] | > 1000 | > 1000 | > 1000 | > 1000 | > 1000 | > 1000 |  |
| CN1CCN(c2nc(C3(c4ccc(Cl)cc4)CCCC3)cs2)CC1 [Compound 85] | > 1000 | < 1000 | < 1000 | < 100 | < 1000 | < 100 |  |
| CNC1CCN(c2nc(C3(c4ccccc4F)CCCCC3)cs2)C1 (stereo not shown) [Compound 134, (1-{4-[1-(2-fluorophenyl)-cyclohexyl]-thiazol-2-yl}-pyrrolidin-3-yl)-methyl-amine] |  |  |  |  |  |  | IC50 ([5]; human, Example 100 table, read-out: IC50 (nM) 5-HT6): < 1000 nM; IC50 ([6]; human, Example 100 table, read-out: IC50 (nM) D3): > 1000 nM; IC50 ([7]; human, Example 100 table, read-out: IC50 (nM) DAT): > 1000 nM |
